Experimental findings from patent US7304037B2, “Cytostatic conjugates with integrin ligands” (priority 2001, dated 2007) are described below.

In general, IC50 refers to the concentration that gives 50% inhibition.

For series [1], the system named is renal xenograft (RXF 944). An excerpt: (§1) In all in-vivo experiments for investigating the inhibition of tumour growth, athymic nude mice (NMRI nu/nu strain) were used. The tumour was developed by serial passage in nude mice, The human origin of the tumour was confirmed by isoenzymatic and immunohistochemical methods.
(§2) The tumour was implanted subcutaneously in both flanks of nu/nu nude mice 6 to 8 weeks old. […] The mice were assigned to the treatment group or the control group (5 mice per group having 8 to 10 assessable tumours) by randomization.
(§3) The size of the tumours was measured in two dimensions by means of a slide gauge. The tumour volume which correlated well with the cell count, was then used for all assessments. The volume was calculated according to the formula “length×breadth×breadth/2” ([a×b^2]/2; a and b representing two diameters arranged at right angles).
(§4) The values of the relative tumour volume (RTV) were calculated for each individual tumour by dividing the tumour size on day X with the tumour size on day 0 (at the time of randomization). The average values of the RTV were then used for the further assessment.
(§5) The inhibition of the increase of the tumour volume (tumour volume of the test group/control group, T/C, in percent) was the final measured value.

The test system of series [2] is melanoma xenograft (MEXF 989). It counts as in vivo, athymic nude mice (NMRI nu/nu strain).
The subject of series [3] is hemopoietic stem cells (bone marrow cells). Put plainly: cells. It counts as cell-based, mice. On the procedure: Bone marrow cells are flushed out of the femur of mice. 10^5 cells are incubated in McCoy 5A medium (0.3% agar) together with recombinant murine GM-CSF (Genzyme; parent cell colony formation) and the substances (10^−4 to 100 μg/ml) at 37° C. and 7% CO2. 7 days later, the colonies (<50 cells) and clusters (17–50 cells) are counted.

Series [4] addresses T1, αvβ3 receptor (αvβ3 from human A375 cells) (Homo sapiens, UniProt P05106+P06756).
T1 construct: αvβ3 from human A375 cells was purified analogously to a procedure described by Wong et al; endogenous in cells; host or cells: human A375 cells (endogenous receptor, detergent-solubilised and purified)
Put plainly: αvβ3 binding test (echistatin displacement, SPA). On the procedure:
αvβ3 from human A375 cells was purified analogously to a procedure described by Wong et al. in Molecular Pharmacology 50, 529–537 (1996). In each case, 10 μL of αvβ3 (5 ng) in TBS pH 7.6, 2 mM CaCl2, 1 mM MgCl2, 1% n-octylglucopyranoside (Sigma); 10 μL of test substance in TBS pH 7.6, 0.1% DMSO and 45 μL of TBS pH 7.6, 2 mM CaCl2, 1 mM MgCl2, 1 mM MnCl2 were incubated at room temperature for 1 h. In each case, 25 μL of WGA SPA beads (Amersham, 4 mg/ml) and 10 μL of echistatin (0.1 μCi, Amersham, chloramine-T labelled) were then added. After 16 h at room temperature, the samples were measured in a scintillation measuring apparatus (Wallac 1450).

Series [5] deals with HT29 human large intestine cell line. It counts as cell-based. As to the method:
(§6) The human large intestine cell lines SW 480 and HT29 (ATCC No. CCL 228) and HTB38 and the mouse melanoma cell line B16F10 (CRL 6475) were grown to confluence in Roux dishes in seromed® RPMI 1640 medium (from Biochrom KG, Berlin) with addition of 10% FCS. They were then trypsinized and taken up in RPMI plus 10% FCS to a cell count of 50,000 cells or, for B16F10, 20,000 cells per mL. 100 μL of cell suspension per well were added to a 96 microwell plate and incubated at 37° C. for 1 day in a CO2 incubator. A further 100 μL of RPMI medium and 1 μL of DMSO were then added with the test substances. The growth was checked after day 6. For this purpose, 25 μL of MTT solution (3-(4,5-dimethylthiazol-2-yl)-2,5-diphenyltetrazolium bromide) were added to each well at a starting concentration of 5 mg/mL of water. The plate was incubated at 37° C. for 5 hours in a CO2 incubator. The medium was then aspirated and 100 1L of i-propanol/well were added. After shaking with 100 μL of water for 30 min, the extinction was measured at 595 nm using a Multiplate Reader (BIO-RAD 3550-UV).
(§7) The cytostatic action is indicated in Table 3 as an IC50 value, in each case for the individual cell lines.

For series [6], the system named is SW480 human large intestine cell line. It counts as cell-based. As to the method:
as §6, §7

In series [7] the test system is B16F10 mouse melanoma cell line. It is filed as cell-based. As to the method:
as §6, §7

For series [8], the system named is breast cancer model (MX-1). The settings on record: MX-1, 18 mg/kg/day intravenously day 1–3 and day 15–17.
Description: as §1, §2, §3, §4, §5
The compounds are dissolved in 1% aqueous dextrose solution and administered intravenously from day 1–3 and day 15–17.

Setting [9] is: IC50 values of the binding to the αVβ3 receptor.
Setting [10] is: read-out: IC50 values of the binding to the αVβ3 receptor.

Values after ≈ are worked out from the molar mass of the structure shown. Where two headings read alike, the source gives them in different places.

T1 sequence (P06756 31-889 limits assumed): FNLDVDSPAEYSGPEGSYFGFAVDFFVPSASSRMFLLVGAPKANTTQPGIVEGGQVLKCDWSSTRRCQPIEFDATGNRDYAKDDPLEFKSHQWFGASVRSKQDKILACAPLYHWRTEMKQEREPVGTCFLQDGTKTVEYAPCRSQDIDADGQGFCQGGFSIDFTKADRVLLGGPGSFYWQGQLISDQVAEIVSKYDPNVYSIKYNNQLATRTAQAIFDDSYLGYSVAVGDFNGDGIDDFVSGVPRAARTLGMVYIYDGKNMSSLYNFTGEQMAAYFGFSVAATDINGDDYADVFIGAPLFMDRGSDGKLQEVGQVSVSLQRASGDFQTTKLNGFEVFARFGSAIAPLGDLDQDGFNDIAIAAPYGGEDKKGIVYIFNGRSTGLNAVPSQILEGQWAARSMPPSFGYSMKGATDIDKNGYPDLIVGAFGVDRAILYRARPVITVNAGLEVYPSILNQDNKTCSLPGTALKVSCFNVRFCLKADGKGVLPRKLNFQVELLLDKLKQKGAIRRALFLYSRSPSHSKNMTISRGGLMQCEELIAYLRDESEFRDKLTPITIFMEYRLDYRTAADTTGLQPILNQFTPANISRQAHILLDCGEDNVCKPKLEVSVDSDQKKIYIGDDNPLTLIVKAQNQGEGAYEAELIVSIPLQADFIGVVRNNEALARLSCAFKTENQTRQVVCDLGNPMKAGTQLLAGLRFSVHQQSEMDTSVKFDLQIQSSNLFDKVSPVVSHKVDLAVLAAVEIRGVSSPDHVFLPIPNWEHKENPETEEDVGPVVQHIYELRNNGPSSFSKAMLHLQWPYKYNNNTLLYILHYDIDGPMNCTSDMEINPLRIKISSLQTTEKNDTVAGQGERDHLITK
T1 sequence (P06756 891-1048 partner limits assumed): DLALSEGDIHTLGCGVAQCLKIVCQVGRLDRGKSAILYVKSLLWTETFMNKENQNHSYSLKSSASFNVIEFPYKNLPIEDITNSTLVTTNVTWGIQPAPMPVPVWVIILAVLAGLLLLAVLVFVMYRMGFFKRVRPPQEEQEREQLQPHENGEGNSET
T1 sequence (P05106 27-788): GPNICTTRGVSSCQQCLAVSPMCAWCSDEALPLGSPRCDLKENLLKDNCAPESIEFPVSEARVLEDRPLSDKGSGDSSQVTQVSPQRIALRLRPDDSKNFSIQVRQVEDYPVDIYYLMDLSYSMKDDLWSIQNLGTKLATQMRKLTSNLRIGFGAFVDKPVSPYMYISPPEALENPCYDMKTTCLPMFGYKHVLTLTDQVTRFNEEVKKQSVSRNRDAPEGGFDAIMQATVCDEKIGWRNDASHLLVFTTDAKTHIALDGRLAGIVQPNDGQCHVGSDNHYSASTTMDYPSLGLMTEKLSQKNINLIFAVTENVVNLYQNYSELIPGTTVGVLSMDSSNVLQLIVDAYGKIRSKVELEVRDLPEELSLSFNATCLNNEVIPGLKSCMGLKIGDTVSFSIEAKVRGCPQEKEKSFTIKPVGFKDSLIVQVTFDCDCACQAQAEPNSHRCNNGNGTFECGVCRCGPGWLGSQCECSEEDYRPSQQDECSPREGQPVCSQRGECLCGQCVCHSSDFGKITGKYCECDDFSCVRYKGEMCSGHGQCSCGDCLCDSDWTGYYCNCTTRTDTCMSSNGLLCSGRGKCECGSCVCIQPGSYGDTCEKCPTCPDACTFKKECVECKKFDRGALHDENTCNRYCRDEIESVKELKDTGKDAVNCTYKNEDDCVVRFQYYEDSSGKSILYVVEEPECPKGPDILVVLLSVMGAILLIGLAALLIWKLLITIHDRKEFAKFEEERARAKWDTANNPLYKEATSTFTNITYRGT

`CCCNC(=O)Nc1cccc(S(=O)(=O)Nc2cccc(C(CC(=O)[O-])NC(=O)Nc3ccc(NC(=S)NCC(=O)N4CCC[C@H]4C(=O)N[C@H](C(=O)O[C@]4(CC)C(=O)OCc5c4cc4n(c5=O)Cc5cc6ccccc6nc5-4)C(C)C)cc3)c2)c1.[Na+]` (single isomer, unassigned) [Example 1]: the lethality is 1/7 in series [1] (RXF 944, 18 mg/kg/day intravenously day 1–3 and day 15–17); 0/7 in series [1] (RXF 944, 24 mg/kg/day intravenously day 1–3 and day 15–17); 1/5 in series [2] (MEXF 989, 18 mg/kg/day intravenously day 1–3 and day 15–17); 1/5 in series [2] (MEXF 989, 24 mg/kg/day intravenously day 1–3 and day 15–17); 0/5 in series [8]. In addition, in series [3], the “toxicity against stem cells in vitro compared to camptothecin (in words)” value (shortened to “toxicity … compared to camptothecin (in words)”) is “drastically reduced toxicity against stem cells in vitro compared to camptothecin”. For the same molecule, the 50% inhibitory concentration (IC50) is 8 nM in series [4] (setting [9]), 60 nM in series [5], 150 nM in series [6] and 160 nM in series [7].
`CCCNC(=O)Nc1cccc(S(=O)(=O)Nc2cccc(C(CC(=O)[O-])NC(=O)Nc3ccc(NC(=S)NCC(=O)N4CCC[C@H]4C(=O)N[C@H](C(=O)O[C@]4(CC)C(=O)OCc5c4cc4n(c5=O)Cc5cc6ccccc6nc5-4)C(C)C)cc3)c2)c1.[Na+]` (single isomer, unassigned) [Example 2]: in series [3], the “toxicity … compared to camptothecin (in words)” value is on record as “drastically reduced toxicity against stem cells in vitro compared to camptothecin”. In addition, the IC50 in series [4] (setting [9]) worked out at 800 nM; in series [5], 150 nM; in series [6], 400 nM; in series [7] it was 400 nM.
For the molecule `CCCNC(=O)Nc1cccc(S(=O)(=O)Nc2cccc(C(CC(=O)O)NC(=O)Nc3ccc(NC(=S)N[C@@H](C)C(=O)N4CCC[C@H]4C(=O)N[C@H](C(=O)O[C@]4(CC)C(=O)OCc5c4cc4n(c5=O)Cc5cc6ccccc6nc5-4)C(C)C)cc3)c2)c1` (single isomer, unassigned) [Example 4], the “toxicity … compared to camptothecin (in words)” value in series [3] is given as “drastically reduced toxicity against stem cells in vitro compared to camptothecin”. Moreover, the IC50 in series [4] (setting [10]) was found to be 500 nM; in series [5] it was 150 nM; in series [6], 600 nM; in series [7] it was 700 nM.
Turning to `CCCNC(=O)Nc1cccc(S(=O)(=O)Nc2cccc(C(CC(=O)O)NC(=O)Nc3ccc(NC(=S)N[C@@H](Cc4c[nH]cn4)C(=O)N4CCC[C@H]4C(=O)N[C@H](C(=O)O[C@]4(CC)C(=O)OCc5c4cc4n(c5=O)Cc5cc6ccccc6nc5-4)C(C)C)cc3)c2)c1` (single isomer, unassigned) [Example 5], the IC50 in series [4] (setting [10]) worked out at 30 nM; in series [5], 300 nM; in series [6], 700 nM; in series [7] it was 1000 nM.
As for `CCCNC(=O)Nc1cccc(S(=O)(=O)Nc2cccc(C(CC(=O)O)NC(=O)Nc3ccc(NC(=S)N[C@@H](CC(N)=O)C(=O)N4CCC[C@H]4C(=O)N[C@H](C(=O)O[C@]4(CC)C(=O)OCc5c4cc4n(c5=O)Cc5cc6ccccc6nc5-4)C(C)C)cc3)c2)c1` (single isomer, unassigned) [Example 6], the IC50 in series [4] (setting [10]) amounted to 100 nM; in series [5], 200 nM; in series [6], 400 nM; in series [7], 600 nM.
Turning to `CCCNC(=O)Nc1cccc(S(=O)(=O)Nc2cccc(C(CC(=O)O)NC(=O)Nc3ccc(NC(=S)N[C@@H](CCC)C(=O)N4CCC[C@H]4C(=O)N[C@H](C(=O)O[C@]4(CC)C(=O)OCc5c4cc4n(c5=O)Cc5cc6ccccc6nc5-4)C(C)C)cc3)c2)c1` (single isomer, unassigned) [Example 7], the IC50 is 100 nM in series [4] (setting [10]), 350 nM in series [5], 600 nM in series [6] and 1000 nM in series [7].
On to `CCCNC(=O)Nc1cccc(S(=O)(=O)Nc2cccc(C(CC(=O)O)NC(=O)Nc3ccc(NC(=S)N[C@@H](CC(=O)O)C(=O)N4CCC[C@H]4C(=O)N[C@H](C(=O)O[C@]4(CC)C(=O)OCc5c4cc4n(c5=O)Cc5cc6ccccc6nc5-4)C(C)C)cc3)c2)c1` (single isomer, unassigned) [Example 8], for which the values for the 50% inhibitory concentration (IC50) in series [5], in series [6] and in series [7] were 50 nM, 50 nM and 300 nM, respectively.
Regarding `CCCNC(=O)Nc1cccc(S(=O)(=O)Nc2cccc(C(CC(=O)O)NC(=O)Nc3ccc(NC(=S)NCC(=O)N4CCC[C@H]4C(=O)N[C@@H](CC(C)C)C(=O)O[C@]4(CC)C(=O)OCc5c4cc4n(c5=O)Cc5cc6ccccc6nc5-4)cc3)c2)c1` (single isomer, unassigned) [Example 9], the IC50 in series [5] amounted to 30 nM; in series [6], 70 nM; in series [7], 80 nM.
Consider `CCCNC(=O)Nc1cccc(S(=O)(=O)Nc2cccc(C(CC(=O)O)NC(=O)Nc3ccc(NC(=S)N[C@@H](C)C(=O)N4CCC[C@H]4C(=O)N[C@@H](CC(C)C)C(=O)NC4C=CCC5CN(c6c(F)cc7c(=O)c(C(=O)O)cn(C8CC8)c7c6Cl)CC54)cc3)c2)c1` (single isomer, unassigned) [Example 12], for which the IC50 in series [4] (setting [10]) was 30 nM; in series [5] (6 days), 600 nM; in series [6] (6 days), 1000 nM; in series [7] (6 days), 2000 nM.
In the case of `CC[C@@]1(O)C(=O)OCc2c1cc1n(c2=O)Cc2cc3ccccc3nc2-1` [camptothecin, 20(S)-Camptothecin, reference compound], in series [1] (RXF 944, 2.5 mg/kg/day), the lethality is reported as 0/6 and the “optimal T/C” value was 41.1%. In addition, the 50% inhibitory concentration (IC50) in series [3] (Mus musculus, Bone marrow cell, 168 h, murine bone marrow cells, GM-CSF, 7 days, read-out: IC50 values of toxicity against hemopoietic stem cells) came to 3 ng/mL (≈ 8.61 nM).
For the molecule `CC[C@@]1(O)C(=O)OCc2c1cc1n(c2=O)Cc2cc3c(CN(C)C)c(O)ccc3nc2-1` [topotecan, reference compound], in series [1] (RXF 944, 1.8 mg/kg/day), the lethality is 0/7 and the “optimal T/C” value came to 47.8%.
